Assay results taken from patent US11999727B2 (Tango Therapeutics, Inc., priority 2020, dated 2024).

Tests used:
[1] = biological target: T1, PRMT5 (Homo sapiens, UniProt O14744); assay: PRMT5 biochemical IC50 assay with SAM as cofactor; conditions: PRMT5, SAM as cofactor; read-out: SAM IC50
T1 construct: purchased Viva (custom protein)

[2] = biological target: T1, PRMT5; assay: PRMT5 biochemical IC50 assay with no cofactor; conditions: PRMT5, no cofactor; read-out: No Cofactor/rel IC50
Description: Table 1 indicates IC50 values (μM) against PRMT5 for exemplary compounds in the presence of SAM as cofactor, with no cofactor, and with MTA as cofactor, respectively (columns 4-6). […] Ki values can be calculated from the IC50 values as described in the Examples section. As detailed in the Examples section, for the assay performed in the presence of SAM, IC50=Ki×1.5 (Ki=IC50/1.5).

[3] = biological target: T1, PRMT5; assay: PRMT5 biochemical IC50 assay with MTA as cofactor; conditions: PRMT5, MTA as cofactor; read-out: MTA IC50
[4] = tested on: HAP1 MTAP-intact cell line; assay: SDMA in-cell western assay, HAP1 MTAP-intact; format: cell-based; conditions: Homo sapiens, HAP1, SDMA in-cell western, HAP1 MTAP-intact; read-out: MTAP HAP1 intact IC50
Summary of the method: (§1)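 MTAP-null vs endogenous-MTAP HAP1 isogenic cells; in-cell western SDMA readout; IC50 per line.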

[5] = tested on: HAP1 MTAP-deleted cell line; assay: SDMA in-cell western assay, HAP1 MTAP-deleted; format: cell-based; conditions: for IC50: Homo sapiens, HAP1, SDMA in-cell western, HAP1 MTAP-deleted; for MTAP intact/deleted ratio: IC50 ratio HAP1 MTAP-intact / HAP1 MTAP-deleted, SDMA in-cell western
Summary of the method: as §1

[6] = tested on: HAP1 MTAP-deleted cell line; assay: Viability assay, MTAP-deleted cell line; format: cell-based; conditions: Homo sapiens, read-out: HAP1 MTAP deleted viability
Description: Table 1 additionally indicates IC50 values in a viability assay for the MTAP-deleted cell line (column 10), indicating the effect of treatment with compound on cell survival.

[7] = read-out: HAP1 MTAP deleted IC50
[8] = HAP1, viability assay, MTAP-deleted cell line
[9] = read-out: HAP 1 MTAP deleted IC50
[10] = HAP1, viability IC50, MTAP-deleted cell line

T1 sequence (O14744 whole entry): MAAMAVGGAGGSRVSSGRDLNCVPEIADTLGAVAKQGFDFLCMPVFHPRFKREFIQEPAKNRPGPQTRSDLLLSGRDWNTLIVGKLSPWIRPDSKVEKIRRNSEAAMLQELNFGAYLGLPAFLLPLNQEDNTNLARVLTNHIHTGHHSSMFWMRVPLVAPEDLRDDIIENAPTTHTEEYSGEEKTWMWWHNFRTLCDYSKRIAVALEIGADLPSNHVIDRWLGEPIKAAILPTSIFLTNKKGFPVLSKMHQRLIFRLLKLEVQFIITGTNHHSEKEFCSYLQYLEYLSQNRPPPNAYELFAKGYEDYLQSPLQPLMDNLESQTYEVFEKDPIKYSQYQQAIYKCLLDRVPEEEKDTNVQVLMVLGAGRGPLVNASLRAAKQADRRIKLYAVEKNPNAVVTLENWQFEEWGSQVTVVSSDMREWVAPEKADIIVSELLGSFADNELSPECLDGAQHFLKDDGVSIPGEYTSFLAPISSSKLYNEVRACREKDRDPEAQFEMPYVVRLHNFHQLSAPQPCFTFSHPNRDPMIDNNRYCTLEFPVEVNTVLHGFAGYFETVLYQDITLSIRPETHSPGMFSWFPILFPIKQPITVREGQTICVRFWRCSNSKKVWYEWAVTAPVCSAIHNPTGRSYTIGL
T1 sequence (Q9BQA1 whole entry partner): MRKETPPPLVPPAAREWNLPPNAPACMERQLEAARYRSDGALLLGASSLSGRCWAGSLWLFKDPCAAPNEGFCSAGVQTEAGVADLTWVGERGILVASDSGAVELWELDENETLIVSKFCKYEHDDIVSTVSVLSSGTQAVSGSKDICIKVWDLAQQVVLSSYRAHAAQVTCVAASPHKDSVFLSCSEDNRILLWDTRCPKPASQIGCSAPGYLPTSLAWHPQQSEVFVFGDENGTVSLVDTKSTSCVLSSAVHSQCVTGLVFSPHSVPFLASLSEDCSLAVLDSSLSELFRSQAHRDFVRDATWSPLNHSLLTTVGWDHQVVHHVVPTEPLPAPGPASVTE

Structure (SMILES) | IC50 [1] [nM] | IC50 [2] [nM] | IC50 [3] [nM] | IC50 [4] [nM] | IC50 [5, 7] [nM] | MTAP intact/deleted ratio [5] | IC50 [6, 8] [nM] | IC50 [5, 9] [nM] | IC50 [6, 10] [nM]
CNc1ccc([C@@H]2CC[C@@H](C)CN2C(=O)C(=O)Nc2cnc(N)c(C)c2)cc1 (racemic) [Compound 498, N-(6-amino-5-methyl-3-pyridyl)-2-[(2S,5R)-5-methyl-2-[4-(methylamino)phenyl]-1-piperidyl]-2-oxo-acetamide] | 50 to 500 | 50 to 500 | 50 to 500 | > 1000 | < 100 | A (an IC50 ratio greater than or equal to 10 fold) | < 1000 | – | –
Cc1n[nH]c2ccc([C@@H]3CC[C@@H](C)CN3C(=O)C(=O)Nc3cncc(C(N)=O)c3)cc12 (racemic) [Compound 500, rac-5-[[2-[(2S,5R)-5-Methyl-2-(3-methyl-1H-indazol-5-yl)-1-piperidyl]-2-oxo-acetyl]amino]pyridine-3-carboxamide] | 50 to 500 | 50 to 500 | 50 to 500 | > 1000 | 100 to 1000 | A (an IC50 ratio greater than or equal to 10 fold) | 1000 to 10000 | – | –
COc1ncc(NC(=O)C(=O)N2C[C@@H](C)CC[C@@H]2c2csc3ccccc23)cc1C(N)=O (racemic) [Compound 501, 5-[[2-[2-(benzothiophen-3-yl)-5-methyl-1-piperidyl]-2-oxo-acetyl]amino]-2-methoxy-pyridine-3-carboxamide] | > 500 | > 500 | 50 to 500 | > 1000 | > 1000 | B (an IC50 ratio greater than or equal to 3 fold but lower than 10 fold) | > 10000 | – | –
C[C@@H]1CCC[C@H]2CN(C(=O)C(=O)Nc3cncc(C(N)=O)c3)CC[C@H]21 (racemic) [Compound 515, 5-(2-(5-methyloctahydroisoquinolin-2(1H)-yl)-2-oxoacetamido)nicotinamide] | 50 to 500 | > 500 | 50 to 500 | > 1000 | > 1000 | B (an IC50 ratio greater than or equal to 3 fold but lower than 10 fold) | > 10000 | – | –
C[C@@H]1CC[C@@H]([C@@H]2CCC(O)C2)N(C(=O)C(=O)Nc2cncc(C(N)=O)c2)C1 (mixture of isomers) [Compound 517, 5-[[2-[(2S,5R)-2-(3-Hydroxycyclopentyl)-5-methyl-1-piperidyl]-2-oxo-acetyl]amino]pyridine-3-carboxamide] | > 500 | > 500 | 50 to 500 | > 1000 | > 1000 | C (an IC50 ratio of less than 3 fold) | > 10000 | – | –
C[C@@H]1CC[C@@](C)(c2ccccc2)N(C(=O)C(=O)Nc2cncc(C(N)=O)c2)C1 (racemic) [Compound 521, 5-(2-(2,5-dimethyl-2-phenylpiperidin-1-yl)-2-oxoacetamido)nicotinamide] | > 500 | > 500 | 50 to 500 | > 1000 | > 1000 | B (an IC50 ratio greater than or equal to 3 fold but lower than 10 fold) | > 10000 | – | –
C[C@@H]1CC[C@@H](c2ccc(-c3ccn[nH]3)cc2)N(C(=O)C(=O)Nc2cncc(C(N)=O)c2)C1 (racemic) [Compound 524, 5-[[2-[(2S,5R)-5-methyl-2-[4-(1H-pyrazol-5-yl)phenyl]-1-piperidyl]-2-oxo-acetyl]amino]pyridine-3-carboxamide] | 50 to 500 | 50 to 500 | 50 to 500 | > 1000 | 100 to 1000 | A (an IC50 ratio greater than or equal to 10 fold) | 1000 to 10000 | – | –
Cc1cc(NC(=O)C(=O)N2C[C@H](C)CC[C@H]2c2ccc(-c3cn[nH]c3)cc2)cnc1N (racemic) [Compound 525, rac N-(6-amino-5-methyl-3-pyridyl)-2-[(2S,5R)-5-methyl-2-[4-(1H-pyrazol-4-yl)phenyl]-1-piperidyl]-2-oxo-acetamide] | > 500 | 50 to 500 | 50 to 500 | 100 to 1000 | < 100 | A (an IC50 ratio greater than or equal to 10 fold) | < 1000 | – | –
Cc1cc(NC(=O)C(=O)N2C[C@H](C)CC[C@H]2c2ccc(-c3ccn[nH]3)cc2)cnc1N (racemic) [Compound 526, rac N-(6-amino-5-methyl-3-pyridyl)-2-[(2S,5R)-5-methyl-2-[4-(1H-pyrazol-5-yl)phenyl]-1-piperidyl]-2-oxo-acetamide] | 50 to 500 | 50 to 500 | 50 to 500 | 100 to 1000 | < 100 | A (an IC50 ratio greater than or equal to 10 fold) | < 1000 | – | –
C[C@@H]1CCC[C@@H]2CN(C(=O)C(=O)Nc3cncc(C(N)=O)c3)CC[C@@H]21 (racemic) [Compound 536, 5-(2-(5-methyloctahydroisoquinolin-2(1H)-yl)-2-oxoacetamido)nicotinamide] | 50 to 500 | > 500 | 50 to 500 | > 1000 | – | A (an IC50 ratio greater than or equal to 10 fold) | – | 100 to 1000 | > 10000
C[C@@H]1CC[C@@H](c2ccc(F)c(O)c2)N(C(=O)C(=O)Nc2cncc(C(N)=O)c2)C1 (racemic) [Compound 540, 5-[[2-[(2R,5S)-2-(4-fluoro-3-hydroxy-phenyl)-5-methyl-1-piperidyl]-2-oxo-acetyl]amino]pyridine-3-carboxamide] | 50 to 500 | 50 to 500 | < 50 | > 1000 | – | A (an IC50 ratio greater than or equal to 10 fold) | – | < 100 | < 1000
C[C@@H]1CN(C(=O)C(=O)Nc2cncc(C(N)=O)c2)C[C@@H]2CCCC[C@@H]21 (racemic) [Compound 541, 5-[[2-[(4S,4aR,8aR)-4-Methyl-3,4,4a,5,6,7,8,8a-octahydro-1H-isoquinolin-2-yl]-2-oxo-acetyl]amino]pyridine-3-carboxamide] | 50 to 500 | > 500 | 50 to 500 | > 1000 | – | A (an IC50 ratio greater than or equal to 10 fold) | – | 100 to 1000 | 1000 to 10000
C[C@@H]1CN(C(=O)C(=O)Nc2cncc(C(N)=O)c2)C[C@H]2CCCC[C@H]21 (racemic) [Compound 542, 5-[[2-[(4S,4aS,8aS)-4-Methyl-3,4,4a,5,6,7,8,8a-octahydro-1H-isoquinolin-2-yl]-2-oxo-acetyl]amino]pyridine-3-carboxamide] | 50 to 500 | > 500 | 50 to 500 | > 1000 | – | B (an IC50 ratio greater than or equal to 3 fold but lower than 10 fold) | – | > 1000 | > 10000
C[C@@H]1CN(C(=O)C(=O)Nc2cncc(C(N)=O)c2)C[C@H]2CCCC[C@@H]21 (racemic) [Compound 543, 5-[[2-[(4S,4aR,8aS)-4-Methyl-3,4,4a,5,6,7,8,8a-octahydro-1H-isoquinolin-2-yl]-2-oxo-acetyl]amino]pyridine-3-carboxamide] | 50 to 500 | 50 to 500 | 50 to 500 | > 1000 | – | A (an IC50 ratio greater than or equal to 10 fold) | – | 100 to 1000 | 1000 to 10000
CC(C)c1cc([C@@H]2CC[C@@H](C)CN2C(=O)C(=O)Nc2cncc(C(N)=O)c2)ccc1O (racemic) [Compound 552, 5-[[2-[(2S,5R)-2-(4-Hydroxy-3-isopropyl-phenyl)-5-methyl-1-piperidyl]-2-oxo-acetyl]amino]pyridine-3-carboxamide] | 50 to 500 | 50 to 500 | < 50 | > 1000 | – | A (an IC50 ratio greater than or equal to 10 fold) | – | < 100 | < 1000
Cc1ccc([C@@H]2CC[C@@H](C)CN2C(=O)C(=O)Nc2cncc(C(N)=O)c2)cc1O (racemic) [Compound 554, 5-[[2-[(2S,5R)-2-(3-hydroxy-4-methyl-phenyl)-5-methyl-1-piperidyl]-2-oxo-acetyl]amino]pyridine-3-carboxamide] | 50 to 500 | 50 to 500 | < 50 | > 1000 | – | A (an IC50 ratio greater than or equal to 10 fold) | – | < 100 | 1000 to 10000
Cc1cc(NC(=O)C(=O)N2C[C@H](C)CC[C@H]2c2ccc(F)c(O)c2)cnc1N (racemic) [Compound 555, N-(6-amino-5-methyl-3-pyridyl)-2-[(2R,5S)-2-(4-fluoro-3-hydroxy-phenyl)-5-methyl-1-piperidyl]-2-oxo-acetamide] | 50 to 500 | 50 to 500 | < 50 | 100 to 1000 | – | A (an IC50 ratio greater than or equal to 10 fold) | – | < 100 | < 1000
